Laboratory results as given in patent US9738634B2, “Heterocyclic amide compound and herbicide” (SYNGENTA PARTICIPATIONS AG, priority 2013, dated 2017).

Key:
Assay type in all cases: in vivo
Indian mallow [1] = assay: Test Example 4: weedkilling efficacy by foliar treatment; K: Indian mallow; conditions: treatment dosage 315 g/ha
Method in brief: (§1)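 Seeds are spot-sown into sterilized diluvial soil and covered with about 1.5 cm of soil. After 14 days' greenhouse growth at 25 to 30° C, plants are sprayed on stems and leaves with diluted emulsion at the stated g/ha rate, then scored at 3 weeks.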

redroot pigweed [2] = assay: Test Example 3: weedkilling efficacy through soil treatment; L: redroot pigweed; conditions: treatment dosage 315 g/ha
Method in brief: (§2)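 Crop and weed responses were judged three weeks after a uniform surface spray of the water-diluted emulsion at the given g/ha rate. Seeds sat beneath about 1.5 cm of sterilized diluvial soil, and boxes stood in a greenhouse at 25 to 30° C.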

bulrush [3] = assay: Test Example 2: weedkilling efficacy, growth period weed treatment in the submerged state; B: bulrush; conditions: treatment dosage 252 g/ha
Method in brief: (§3)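 First, alluvial soil in pots is flooded to 4 cm and mixed seed is sown. Next, plants grow in a greenhouse at 25 to 30° C until the 1-2 leaf stage. Then diluted emulsion is applied onto the water surface at the given g/ha rate, and injury is assessed after 3 weeks.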

redroot pigweed [4] = assay: Test Example 4: weedkilling efficacy by foliar treatment; L: redroot pigweed; conditions: treatment dosage 315 g/ha
Method in brief: as §1

chickweed [5] = assay: Test Example 3: weedkilling efficacy through soil treatment; N: chickweed; conditions: treatment dosage 315 g/ha
Method in brief: as §2

oval-leafed pondweed [6] = assay: Test Example 1: weedkilling efficacy, preemergent weed treatment in the submerged state; C: oval-leafed pondweed; conditions: treatment dosage 252 g/ha
Method in brief: (§4)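 Emulsion diluted with water to the specified per-hectare dosage is applied onto flood water (4 cm) over alluvial soil on the sowing day, with barnyard grass, bulrush and pondweed seeded and rice (2.5-leaf) transplanted; plants grow at 25–30 °C and are rated at 3 weeks.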

barnyard grass [7] = assay: Test Example 1: weedkilling efficacy, preemergent weed treatment in the submerged state; A: barnyard grass; conditions: treatment dosage 252 g/ha
Method in brief: as §4

green foxtail [8] = assay: Test Example 3: weedkilling efficacy through soil treatment; E: green foxtail; conditions: treatment dosage 315 g/ha
Method in brief: as §2

crabgrass [9] = assay: Test Example 4: weedkilling efficacy by foliar treatment; D: crabgrass; conditions: treatment dosage 315 g/ha
Method in brief: as §1

black-grass [10] = assay: Test Example 4: weedkilling efficacy by foliar treatment; H: black-grass; conditions: treatment dosage 315 g/ha
Method in brief: as §1

Italian ryegrass [11] = assay: Test Example 4: weedkilling efficacy by foliar treatment; I: Italian ryegrass; conditions: treatment dosage 315 g/ha
Method in brief: as §1

soybean [12] = assay: Test Example 3: soil treatment, effect on crop; d: soybean; conditions: treatment dosage 315 g/ha
Method in brief: as §2

directly sown rice [13] = assay: Test Example 4: foliar treatment, effect on crop; b: directly sown rice; conditions: treatment dosage 315 g/ha
Method in brief: as §1

fig-leafed goosefoot [14] = assay: Test Example 3: weedkilling efficacy through soil treatment; M: fig-leafed goosefoot; conditions: treatment dosage 315 g/ha
Method in brief: as §2

catchweed = assay: Test Example 4: weedkilling efficacy by foliar treatment; O: catchweed; conditions: treatment dosage 315 g/ha
Method in brief: as §1

oval-leafed pondweed [15] = assay: Test Example 2: weedkilling efficacy, growth period weed treatment in the submerged state; C: oval-leafed pondweed; conditions: treatment dosage 252 g/ha
Method in brief: as §3

wheat [16] = assay: Test Example 4: foliar treatment, effect on crop; e: wheat; conditions: treatment dosage 315 g/ha
Method in brief: as §1

transplanted rice = assay: Test Example 1: preemergent weed treatment in the submerged state, effect on crop; a: transplanted rice; conditions: treatment dosage 252 g/ha
Method in brief: as §4

Italian ryegrass [17] = assay: Test Example 3: weedkilling efficacy through soil treatment; I: Italian ryegrass; conditions: treatment dosage 315 g/ha
Method in brief: as §2

birds-eye speedwell [18] = assay: Test Example 4: weedkilling efficacy by foliar treatment; p: birds-eye speedwell; conditions: treatment dosage 315 g/ha
Method in brief: as §1

corn [19] = assay: Test Example 4: foliar treatment, effect on crop; c: corn; conditions: treatment dosage 315 g/ha
Method in brief: as §1

chickweed [20] = assay: Test Example 4: weedkilling efficacy by foliar treatment; N: chickweed; conditions: treatment dosage 315 g/ha
Method in brief: as §1

bulrush [21] = assay: Test Example 1: weedkilling efficacy, preemergent weed treatment in the submerged state; B: bulrush; conditions: treatment dosage 252 g/ha
Method in brief: as §4

barnyard grass [22] = assay: Test Example 2: weedkilling efficacy, growth period weed treatment in the submerged state; A: barnyard grass; conditions: treatment dosage 252 g/ha
Method in brief: as §3

corn [23] = assay: Test Example 3: soil treatment, effect on crop; c: corn; conditions: treatment dosage 315 g/ha
Method in brief: as §2

directly sown rice [24] = assay: Test Example 3: soil treatment, effect on crop; b: directly sown rice; conditions: treatment dosage 315 g/ha
Method in brief: as §2

crabgrass [25] = assay: Test Example 3: weedkilling efficacy through soil treatment; D: crabgrass; conditions: treatment dosage 315 g/ha
Method in brief: as §2

soybean [26] = assay: Test Example 4: foliar treatment, effect on crop; d: soybean; conditions: treatment dosage 315 g/ha
Method in brief: as §1

green foxtail [27] = assay: Test Example 4: weedkilling efficacy by foliar treatment; E: green foxtail; conditions: treatment dosage 315 g/ha
Method in brief: as §1

black-grass [28] = assay: Test Example 3: weedkilling efficacy through soil treatment; H: black-grass; conditions: treatment dosage 315 g/ha
Method in brief: as §2

Indian mallow [29] = assay: Test Example 3: weedkilling efficacy through soil treatment; K: Indian mallow; conditions: treatment dosage 315 g/ha
Method in brief: as §2

beet [30] = assay: Test Example 3: soil treatment, effect on crop; f: beet; conditions: treatment dosage 315 g/ha
Method in brief: as §2

fig-leafed goosefoot [31] = assay: Test Example 4: weedkilling efficacy by foliar treatment; M: fig-leafed goosefoot; conditions: treatment dosage 315 g/ha
Method in brief: as §1

beet [32] = assay: Test Example 4: foliar treatment, effect on crop; f: beet; conditions: treatment dosage 315 g/ha
Method in brief: as §1

birds-eye speedwell [33] = assay: Test Example 3: weedkilling efficacy through soil treatment; p: birds-eye speedwell; conditions: treatment dosage 315 g/ha
Method in brief: as §2

wheat [34] = assay: Test Example 3: soil treatment, effect on crop; e: wheat; conditions: treatment dosage 315 g/ha
Method in brief: as §2

wild oat = assay: Test Example 3: weedkilling efficacy through soil treatment; G: wild oat; conditions: treatment dosage 315 g/ha
Method in brief: as §2

**Q.** What does the source list for CC1=C(c2ccsc2)C(=O)N(C(C)(C)C(=O)Nc2nc(C(C)C)ns2)CO1 [B-1-03]?
**A.** K (Indian mallow) weedkilling efficacy grade (Indian mallow [1]): 4 (weed kill ratio 70% or more, less than 90%); L (redroot pigweed) weedkilling efficacy grade (redroot pigweed [2]): 4 (weed kill ratio 70% or more, less than 90%); B (bulrush) weedkilling efficacy grade (bulrush [3]): 5 (weed kill ratio 90% or more, (practically complete withering)); L (redroot pigweed) weedkilling efficacy grade (redroot pigweed [4]): 4 (weed kill ratio 70% or more, less than 90%); N (chickweed) weedkilling efficacy grade (chickweed [5]): 3 (weed kill ratio 40% or more, less than 70%); C (oval-leafed pondweed) weedkilling efficacy grade (oval-leafed pondweed [6]): 5 (weed kill ratio 90% or more, (practically complete withering)); A (barnyard grass) weedkilling efficacy grade (barnyard grass [7]): 5 (weed kill ratio 90% or more, (practically complete withering)); E (green foxtail) weedkilling efficacy grade (green foxtail [8]): 5 (weed kill ratio 90% or more, (practically complete withering)); D (crabgrass) weedkilling efficacy grade (crabgrass [9]): 4 (weed kill ratio 70% or more, less than 90%); H (black-grass) weedkilling efficacy grade (black-grass [10]): 5 (weed kill ratio 90% or more, (practically complete withering)); I (Italian ryegrass) weedkilling efficacy grade (Italian ryegrass [11]): 5 (weed kill ratio 90% or more, (practically complete withering)); d (soybean) effect on crop grade (soybean [12]): 0 (weed kill ratio 5% or less (practically no effect)); b (directly sown rice) effect on crop grade (directly sown rice [13]): 4 (weed kill ratio 70% or more, less than 90%); M (fig-leafed goosefoot) weedkilling efficacy grade (fig-leafed goosefoot [14]): 5 (weed kill ratio 90% or more, (practically complete withering)); O (catchweed) weedkilling efficacy grade (catchweed): 3 (weed kill ratio 40% or more, less than 70%); C (oval-leafed pondweed) weedkilling efficacy grade (oval-leafed pondweed [15]): 5 (weed kill ratio 90% or more, (practically complete withering)); e (wheat) effect on crop grade (wheat [16]): 0 (weed kill ratio 5% or less (practically no effect)); a (transplanted rice) effect on crop grade (transplanted rice): 3 (weed kill ratio 40% or more, less than 70%); I (Italian ryegrass) weedkilling efficacy grade (Italian ryegrass [17]): 5 (weed kill ratio 90% or more, (practically complete withering)); P (birds-eye speedwell) weedkilling efficacy grade (birds-eye speedwell [18]): 4 (weed kill ratio 70% or more, less than 90%); c (corn) effect on crop grade (corn [19]): 2 (weed kill ratio 20% or more, less than 40%); N (chickweed) weedkilling efficacy grade (chickweed [20]): 3 (weed kill ratio 40% or more, less than 70%); B (bulrush) weedkilling efficacy grade (bulrush [21]): 5 (weed kill ratio 90% or more, (practically complete withering)); A (barnyard grass) weedkilling efficacy grade (barnyard grass [22]): 5 (weed kill ratio 90% or more, (practically complete withering)); c (corn) effect on crop grade (corn [23]): 0 (weed kill ratio 5% or less (practically no effect)); b (directly sown rice) effect on crop grade (directly sown rice [24]): 5 (weed kill ratio 90% or more, (practically complete withering)); D (crabgrass) weedkilling efficacy grade (crabgrass [25]): 5 (weed kill ratio 90% or more, (practically complete withering)); d (soybean) effect on crop grade (soybean [26]): 4 (weed kill ratio 70% or more, less than 90%); E (green foxtail) weedkilling efficacy grade (green foxtail [27]): 4 (weed kill ratio 70% or more, less than 90%); H (black-grass) weedkilling efficacy grade (black-grass [28]): 5 (weed kill ratio 90% or more, (practically complete withering)); K (Indian mallow) weedkilling efficacy grade (Indian mallow [29]): 4 (weed kill ratio 70% or more, less than 90%); f (beet) effect on crop grade (beet [30]): 3 (weed kill ratio 40% or more, less than 70%); M (fig-leafed goosefoot) weedkilling efficacy grade (fig-leafed goosefoot [31]): 5 (weed kill ratio 90% or more, (practically complete withering)); f (beet) effect on crop grade (beet [32]): 3 (weed kill ratio 40% or more, less than 70%); P (birds-eye speedwell) weedkilling efficacy grade (birds-eye speedwell [33]): 5 (weed kill ratio 90% or more, (practically complete withering)); e (wheat) effect on crop grade (wheat [34]): 3 (weed kill ratio 40% or more, less than 70%); G (wild oat) weedkilling efficacy grade (wild oat): 5 (weed kill ratio 90% or more, (practically complete withering))
